Drawing on patent US20250236608A1, “EGFR INHIBITORS” (Blueprint Medicines Corporation, priority 2022, published 2025), this text covers IC50 for 21 molecules.

For one assay, the target named is EGFR L858R (Homo sapiens (Human), UniProt P00533, L858R). Kind of assay: Biochemical EGFR inhibition assay, EGFR L858R. As to conditions: Caliper mobility shift; 1.0 mM ATP or ATP Km; read-out: Enz EGFR_L858R IC50.
The target of a further assay is EGFR (d746-750) (Homo sapiens (Human), UniProt P00533, DEL746-750). Briefly: Biochemical EGFR inhibition assay, EGFR (d746-750). As to conditions: Caliper mobility shift; 1.0 mM ATP or ATP Km; read-out: Enz EGFR_Exon19-del746-750 IC50.
The target in assay [1] is pEGFR (Tyr1068) in PC-9 cells (Ex19Del) (Homo sapiens (Human), UniProt P00533, DEL746-750). Kind of assay: PC-9 pEGFR AlphaLISA assay. As to conditions: 4 hours incubation, p-EGFR (Tyr1068) AlphaLISA, read-out: Ext pEGFR_PC-9 Ex19Del IC50. Format: cell-based. The gist of the method:
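PC-9 cells seeded overnight in phenol-free DMEM with 10% FBS, then treated 4 h at 37°C with a 10-point, 4-fold compound series. Lysates assayed for pEGFR Tyr1068 by AlphaLISA SureFire; IC50 from % inhibition vs log concentration.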
In general terms: In Alpha technology, singlet oxygen from a donor bead excites a nearby acceptor bead.

pEGFR (Tyr1068) in PC-9 cells (Ex19Del), sequence (P00533 other isoform, or with tags, fused parts or gaps del 746-750): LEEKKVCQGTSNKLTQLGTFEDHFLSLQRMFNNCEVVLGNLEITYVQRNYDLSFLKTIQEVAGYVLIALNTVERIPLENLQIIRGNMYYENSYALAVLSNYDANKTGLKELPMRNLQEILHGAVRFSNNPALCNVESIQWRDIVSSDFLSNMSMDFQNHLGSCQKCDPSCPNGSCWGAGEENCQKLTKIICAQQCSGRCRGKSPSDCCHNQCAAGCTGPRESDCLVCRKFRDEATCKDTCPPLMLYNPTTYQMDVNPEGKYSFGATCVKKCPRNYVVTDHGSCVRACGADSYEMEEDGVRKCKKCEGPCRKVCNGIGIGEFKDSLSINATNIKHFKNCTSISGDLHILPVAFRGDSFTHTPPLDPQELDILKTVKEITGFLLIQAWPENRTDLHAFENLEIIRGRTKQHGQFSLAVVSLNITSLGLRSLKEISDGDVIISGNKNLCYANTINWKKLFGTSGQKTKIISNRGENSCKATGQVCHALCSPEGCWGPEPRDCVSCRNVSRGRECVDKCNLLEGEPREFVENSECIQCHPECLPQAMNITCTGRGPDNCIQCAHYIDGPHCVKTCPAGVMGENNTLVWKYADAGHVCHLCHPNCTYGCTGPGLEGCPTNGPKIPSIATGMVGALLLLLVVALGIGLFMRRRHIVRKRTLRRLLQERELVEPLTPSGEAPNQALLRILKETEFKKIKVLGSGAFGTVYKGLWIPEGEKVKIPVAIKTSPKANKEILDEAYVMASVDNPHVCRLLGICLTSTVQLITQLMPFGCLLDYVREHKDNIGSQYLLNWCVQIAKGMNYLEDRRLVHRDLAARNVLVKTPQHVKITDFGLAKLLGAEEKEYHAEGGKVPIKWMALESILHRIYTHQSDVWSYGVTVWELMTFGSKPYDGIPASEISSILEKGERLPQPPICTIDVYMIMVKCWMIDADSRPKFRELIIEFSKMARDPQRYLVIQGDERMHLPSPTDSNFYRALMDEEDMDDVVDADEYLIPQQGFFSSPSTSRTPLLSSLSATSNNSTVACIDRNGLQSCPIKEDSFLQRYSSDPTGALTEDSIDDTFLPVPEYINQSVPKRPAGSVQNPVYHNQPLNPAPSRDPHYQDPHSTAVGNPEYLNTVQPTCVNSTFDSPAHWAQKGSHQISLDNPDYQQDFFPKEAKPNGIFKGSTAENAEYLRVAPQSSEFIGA
EGFR L858R, sequence (P00533 25-1210 L858R): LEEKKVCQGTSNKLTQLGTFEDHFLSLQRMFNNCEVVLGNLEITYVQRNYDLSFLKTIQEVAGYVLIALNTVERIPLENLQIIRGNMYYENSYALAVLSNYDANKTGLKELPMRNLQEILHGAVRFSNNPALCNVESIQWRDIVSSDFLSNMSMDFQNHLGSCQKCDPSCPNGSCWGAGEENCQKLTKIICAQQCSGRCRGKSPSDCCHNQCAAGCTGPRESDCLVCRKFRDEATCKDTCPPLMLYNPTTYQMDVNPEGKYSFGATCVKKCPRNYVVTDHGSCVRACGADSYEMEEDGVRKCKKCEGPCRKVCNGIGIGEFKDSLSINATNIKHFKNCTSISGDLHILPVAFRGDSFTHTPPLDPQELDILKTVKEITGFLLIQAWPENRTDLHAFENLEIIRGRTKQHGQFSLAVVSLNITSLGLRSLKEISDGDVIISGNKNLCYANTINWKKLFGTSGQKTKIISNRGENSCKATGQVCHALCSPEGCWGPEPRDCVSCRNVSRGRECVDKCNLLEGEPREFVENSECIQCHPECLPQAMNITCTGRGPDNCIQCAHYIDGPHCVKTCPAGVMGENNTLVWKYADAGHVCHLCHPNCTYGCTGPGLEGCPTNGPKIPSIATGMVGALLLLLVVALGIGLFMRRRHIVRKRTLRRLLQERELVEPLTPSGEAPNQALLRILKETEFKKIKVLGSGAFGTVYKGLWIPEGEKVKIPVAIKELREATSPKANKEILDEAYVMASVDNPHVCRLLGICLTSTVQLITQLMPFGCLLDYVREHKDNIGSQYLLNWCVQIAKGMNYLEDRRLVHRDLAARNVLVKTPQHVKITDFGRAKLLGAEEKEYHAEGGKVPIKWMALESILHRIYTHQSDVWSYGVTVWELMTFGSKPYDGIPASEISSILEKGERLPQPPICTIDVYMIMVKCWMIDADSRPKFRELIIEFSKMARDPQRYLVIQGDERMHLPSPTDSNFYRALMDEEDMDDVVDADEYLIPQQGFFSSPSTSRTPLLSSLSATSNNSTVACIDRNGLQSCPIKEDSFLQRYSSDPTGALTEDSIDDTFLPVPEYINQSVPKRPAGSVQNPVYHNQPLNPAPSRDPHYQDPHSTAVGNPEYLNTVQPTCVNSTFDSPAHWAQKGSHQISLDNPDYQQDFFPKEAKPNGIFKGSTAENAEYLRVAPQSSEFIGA
EGFR (d746-750), sequence (P00533 other isoform, or with tags, fused parts or gaps del 1-694/del 746-750 limits assumed): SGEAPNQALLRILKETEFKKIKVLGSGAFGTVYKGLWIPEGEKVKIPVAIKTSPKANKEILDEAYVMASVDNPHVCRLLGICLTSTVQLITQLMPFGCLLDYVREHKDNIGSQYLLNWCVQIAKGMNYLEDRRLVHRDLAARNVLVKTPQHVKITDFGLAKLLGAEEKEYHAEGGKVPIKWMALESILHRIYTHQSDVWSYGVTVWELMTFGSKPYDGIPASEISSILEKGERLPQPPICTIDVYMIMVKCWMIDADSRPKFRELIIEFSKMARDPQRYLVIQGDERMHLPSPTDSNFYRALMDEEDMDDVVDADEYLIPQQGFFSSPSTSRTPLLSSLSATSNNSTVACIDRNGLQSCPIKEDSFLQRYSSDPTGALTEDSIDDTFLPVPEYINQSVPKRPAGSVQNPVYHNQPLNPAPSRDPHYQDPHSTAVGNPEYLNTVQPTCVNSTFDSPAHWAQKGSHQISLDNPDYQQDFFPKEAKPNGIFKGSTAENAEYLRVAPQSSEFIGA

As usually defined, the IC50 is the midpoint of a concentration-inhibition curve. In the case of `CCOc1cc2ncnc(-c3cn(C(C)C)nc3-c3ccccc3)c2cc1[C@@H](C)O` (single isomer, unassigned) [Example 109, (R)-1-(7-ethoxy-4-(1-isopropyl-3-phenyl-1H-pyrazol-4-yl)quinazolin-6-yl)ethan-1-ol or (S)-1-(7-ethoxy-4-(1-isopropyl-3-phenyl-1H-pyrazol-4-yl)quinazolin-6-yl)ethan-1-ol], the IC50 on EGFR L858R was determined as 3.8 nM; at EGFR (d746-750), 2.2 nM; in assay [1], 4.7 nM.

For the molecule `COc1cc2ncnc(-c3cn(C)nc3-c3ccccc3)c2cc1O[C@H]1CCOC[C@@H]1F` [Example 17, 6-(((3S,4S)-3-fluorotetrahydro-2H-pyran-4-yl)oxy)-7-methoxy-4-(1-methyl-3-phenyl-1H-pyrazol-4-yl)quinazoline], the IC50 at EGFR L858R worked out at 1.8 nM; on EGFR (d746-750), 1.1 nM; in assay [1], 2.4 nM.

Take `Cn1cc(-c2ncnc3cc(OC4CC4)c(NC(=O)[C@]45COCC4C5)nc23)c(-c2ccccc2)n1` (stereo partly drawn) [Example 459, (1S)—N-[7-cyclopropoxy-4-(1-methyl-3-phenyl-1H-pyrazol-4-yl)pyrido[3,2-d]pyrimidin-6-yl]-3-oxabicyclo[3.1.0]hexane-1-carboxamide]: the IC50 is 3.8 nM on EGFR L858R, 1 nM on EGFR (d746-750) and 1.2 nM in assay [1].

Turning to `COc1cc2ncnc(-c3cn(C)nc3-c3ccccc3)c2cc1NC(=O)C12CC(C1)C2` [Example 340, N-(7-methoxy-4-(1-methyl-3-phenyl-1H-pyrazol-4-yl)quinazolin-6-yl)bicyclo[1.1.1]pentane-1-carboxamide], the figures for the IC50 (at EGFR L858R; on EGFR (d746-750); in assay [1]) were 3.3 nM, 1.6 nM and 2.5 nM, respectively.

Take `COc1cc2ncnc(-c3cn(C)nc3-c3ccccc3)c2cc1NC(=O)[C@@H]1CCN(C)C[C@H]1F` [Example 284, (3S,4S)-3-fluoro-N-(7-methoxy-4-(1-methyl-3-phenyl-1H-pyrazol-4-yl)quinazolin-6-yl)-1-methylpiperidine-4-carboxamide]: the results for the IC50 (at EGFR L858R; at EGFR (d746-750); in assay [1]) were 8.7 nM, 4.7 nM and 18.7 nM, respectively.

Turning to `COc1cc2ncnc(-c3cn(C)nc3-c3ccccc3)c2nc1NC(=O)c1cn(C(F)(F)F)nc1C` [Example 428, N-(7-methoxy-4-(1-methyl-3-phenyl-1H-pyrazol-4-yl)pyrido[3,2-d]pyrimidin-6-yl)-3-methyl-1-(trifluoromethyl)-1H-pyrazole-4-carboxamide], the IC50 on EGFR L858R was 3.9 nM; at EGFR (d746-750), 1.2 nM; in assay [1], 7.7 nM.

For `CCn1ccc(C(=O)Nc2cc3c(-c4cn(C)nc4-c4ccccc4)ncnc3cc2OC)n1` [Example 202, 1-ethyl-N-(7-methoxy-4-(1-methyl-3-phenyl-1H-pyrazol-4-yl)quinazolin-6-yl)-1H-pyrazole-3-carboxamide], the figures for the IC50 (on EGFR L858R; at EGFR (d746-750); in assay [1]) were 0.9 nM, 0.6 nM and 0.6 nM, respectively.

For `COc1cc2ncnc(-c3cn(C)nc3-c3ccccc3)c2cc1C(C)O` (stereo not drawn) [Example 100, 1-(7-methoxy-4-(1-methyl-3-phenyl-1H-pyrazol-4-yl)quinazolin-6-yl)ethan-1-ol], the results for the IC50 (at EGFR L858R; at EGFR (d746-750); in assay [1]) were 2.9 nM, 2 nM and 7.6 nM, respectively.

Take `COc1cc2ncnc(-c3cn(C)nc3-c3ccccc3)c2cc1C1=CCN(C)C1` [Example 131, 7-methoxy-6-(1-methyl-2,5-dihydro-1H-pyrrol-3-yl)-4-(1-methyl-3-phenyl-1H-pyrazol-4-yl)quinazoline]: the IC50 came out at 1.6 nM at EGFR L858R, 1.9 nM at EGFR (d746-750) and 3.3 nM in assay [1].

Take `COc1cc2ncnc(-c3cn(C)nc3-c3ccccc3)c2cc1NC(=O)c1cnn(C(F)(F)F)c1C` [Example 234, N-(7-methoxy-4-(1-methyl-3-phenyl-1H-pyrazol-4-yl)quinazolin-6-yl)-5-methyl-1-(trifluoromethyl)-1H-pyrazole-4-carboxamide]: the half-inhibitory concentration (IC50) on EGFR L858R stood at 1.9 nM; on EGFR (d746-750), 1.1 nM; in assay [1], 2.8 nM.

With `COc1cc2ncnc(-c3cn(C)nc3-c3ccccc3)c2cc1NC(=O)[C@H]1CCN(C)C[C@@H]1F` [Example 285, (3R,4R)-3-fluoro-N-(7-methoxy-4-(1-methyl-3-phenyl-1H-pyrazol-4-yl)quinazolin-6-yl)-1-methylpiperidine-4-carboxamide], the figures for the IC50 (at EGFR L858R; on EGFR (d746-750); in assay [1]) were 1.3 nM, 0.8 nM and 0.5 nM, respectively.

For `COc1cc2ncnc(-c3cn(C)nc3-c3ccc(F)cc3)c2nc1NC(=O)[C@@]12CN(C)C[C@@H]1C2(F)F` (single isomer, unassigned) [Example 426, (1S,5R)-6,6-difluoro-N-(4-(3-(4-fluorophenyl)-1-methyl-1H-pyrazol-4-yl)-7-methoxypyrido[3,2-d]pyrimidin-6-yl)-3-methyl-3-azabicyclo[3.1.0]hexane-1-carboxamide or (1R,5S)-6,6-difluoro-N-(4-(3-(4-fluorophenyl)-1-methyl-1H-pyrazol-4-yl)-7-methoxypyrido[3,2-d]pyrimidin-6-yl)-3-methyl-3-azabicyclo[3.1.0]hexane-1-carboxamide], the IC50 on EGFR L858R amounted to 2.8 nM; at EGFR (d746-750) it was 1.1 nM; in assay [1], 1.3 nM.

With `CCn1cc(C(=O)Nc2cc3c(-c4cn(C)nc4-c4ccccc4)ncnc3cc2OC)cn1` [Example 219, 1-ethyl-N-(7-methoxy-4-(1-methyl-3-phenyl-1H-pyrazol-4-yl)quinazolin-6-yl)-1H-pyrazole-4-carboxamide], the figures for the IC50 (at EGFR L858R; on EGFR (d746-750); in assay [1]) were 1.9 nM, 1.1 nM and 1.7 nM, respectively.

As for `COc1cc2ncnc(-c3cn(CC4CC4)nc3-c3ccccc3)c2nc1NC(=O)[C@]12C[C@H]1CN(C)C2` (single isomer, unassigned) [Example 409, (1S,5S)—N-(4-(1-(cyclopropylmethyl)-3-phenyl-1H-pyrazol-4-yl)-7-methoxypyrido[3,2-d]pyrimidin-6-yl)-3-methyl-3-azabicyclo[3.1.0]hexane-1-carboxamide or (1R,5R)—N-(4-(1-(cyclopropylmethyl)-3-phenyl-1H-pyrazol-4-yl)-7-methoxypyrido[3,2-d]pyrimidin-6-yl)-3-methyl-3-azabicyclo[3.1.0]hexane-1-carboxamide], the values for the IC50 (at EGFR L858R; at EGFR (d746-750); in assay [1]) were 1 nM, 0.6 nM and 0.8 nM, respectively.

Take `COc1cc2ncnc(-c3cn(C)nc3-c3ccccc3)c2nc1O[C@H](C)c1ncsc1C` (single isomer, unassigned) [Example 53, (R)-4-(1-((7-methoxy-4-(1-methyl-3-phenyl-1H-pyrazol-4-yl)pyrido[3,2-d]pyrimidin-6-yl)oxy)ethyl)-5-methylthiazole or (S)-4-(1-((7-methoxy-4-(1-methyl-3-phenyl-1H-pyrazol-4-yl)pyrido[3,2-d]pyrimidin-6-yl)oxy)ethyl)-5-methylthiazole]: the IC50 on EGFR L858R is 12.8 nM; at EGFR (d746-750), 1.1 nM; in assay [1], 2.7 nM.

As to `COc1cc2ncnc(-c3cn(C)nc3-c3ccccc3)c2cc1NC(=O)C1CC(OC)C1` (stereo not drawn) [Example 215, 3-methoxy-N-(7-methoxy-4-(1-methyl-3-phenyl-1H-pyrazol-4-yl)quinazolin-6-yl)cyclobutane-1-carboxamide], the IC50 at EGFR L858R turned out to be 2.7 nM; on EGFR (d746-750) it was 1.6 nM; in assay [1] it was 1.1 nM.

Consider `CCOc1cc2ncnc(-c3cn(C)nc3-c3ccccc3)c2cc1NC(=O)c1cccnc1` [Example 296, N-(7-ethoxy-4-(1-methyl-3-phenyl-1H-pyrazol-4-yl)quinazolin-6-yl)nicotinamide], for which the IC50 on EGFR L858R was 1.4 nM; on EGFR (d746-750), 0.7 nM; in assay [1] it was 1.1 nM.

With `COc1cc2ncnc(-c3cn(C)nc3-c3ccccc3)c2cc1NC(=O)c1ccncc1C` [Example 191, N-(7-methoxy-4-(1-methyl-3-phenyl-1H-pyrazol-4-yl)quinazolin-6-yl)-3-methylisonicotinamide], the IC50 at EGFR L858R turned out to be 3.8 nM; on EGFR (d746-750), 1.8 nM; in assay [1], 6.4 nM.

Consider `CCOc1cc2ncnc(-c3cn(C4CC4)nc3-c3ccccc3)c2cc1[C@H](C)O` (single isomer, unassigned) [Example 112, (S)-1-(4-(1-cyclopropyl-3-phenyl-1H-pyrazol-4-yl)-7-ethoxyquinazolin-6-yl)ethan-1-ol or (R)-1-(4-(1-cyclopropyl-3-phenyl-1H-pyrazol-4-yl)-7-ethoxyquinazolin-6-yl)ethan-1-ol], for which the IC50 stood at 1.9 nM at EGFR L858R, 1.2 nM at EGFR (d746-750) and 3.8 nM in assay [1].

For `Cc1n[nH]c(-c2ccccc2)c1-c1ncnc2cc(-c3cnn(C)c3)ccc12` [Example 479, 7-(1-methyl-1H-pyrazol-4-yl)-4-(3-methyl-5-phenyl-1H-pyrazol-4-yl)quinazoline], the IC50 on EGFR L858R is 2.7 nM; at EGFR (d746-750), 2.1 nM; in assay [1] it was 25.9 nM.

As to `COc1cc2ncnc(-c3cn(C)nc3-c3ccccc3)c2cc1NC(=O)[C@H]1CCN1C` (single isomer, unassigned) [Example 253, (R)—N-(7-methoxy-4-(1-methyl-3-phenyl-1H-pyrazol-4-yl)quinazolin-6-yl)-1-methylazetidine-2-carboxamide or (S)—N-(7-methoxy-4-(1-methyl-3-phenyl-1H-pyrazol-4-yl)quinazolin-6-yl)-1-methylazetidine-2-carboxamide], the IC50 on EGFR L858R is 2.4 nM; at EGFR (d746-750) it was 1.9 nM; in assay [1] it was 3.9 nM.
